Measured values reported in the NIST ThermoML archive (doi:10.1021/je020145g).
Numbers after ± are expanded uncertainties.

Legend:
[1] = DTA
[2] = Molar enthalpy of transition or fusion; conditions: DSC

Question: Which Normal melting temperature ([1]; Crystal 1) does the source give for `CCCCn1cc[n+](C)c1.F[P-](F)(F)(F)(F)F` [1-butyl-3-methylimidazolium hexafluorophosphate] here?
Answer: Its Normal melting temperature is 3.28 ± 1 °C.

Question: And the Glass transition temperature ([1]; Glass)?
Answer: Its Glass transition temperature is -76.59 ± 0.5 °C.

Question: And the “Molar enthalpy of transition or fusion” value ([2]; Crystal 1)?
Answer: Its value is 2.2 ± 0.0789 kcal/mol.

Question: What does the source list for `CCn1cc[n+](C)c1.F[P-](F)(F)(F)(F)F` [1-ethyl-3-methylimidazolium hexafluorophosphate]?
Answer: Normal melting temperature ([1]; Crystal): 59.7 ± 1 °C; Molar enthalpy of transition or fusion ([2]; Crystal): 4.27 ± 0.134 kcal/mol
